# Patent US7579334B2, “Compounds with anti-inflammatory activity” (GlaxoSmithKline Istrazivacki Centar Zagreb, priority 2003, dated 2009)
# Legend:
# [1] = molecular target: T1, alpha isoform of human glucocorticoid receptor (Homo sapiens, UniProt P04150); assay: Assay of binding to human glucocorticoid receptor ([3H]dexamethasone displacement in transfected COS-1 cells); conditions: 24 nM [3H]dexamethazone, COS-1 cells transfected with human GR alpha, 90 minutes at 37° C.
# T1 construct: expressed in transfected cells; host or cells: COS-1 cells, transient transfection with pcDNA3.1 Hygro(+) carrying the GR alpha cDNA
# T1 sequence (P04150 1-777): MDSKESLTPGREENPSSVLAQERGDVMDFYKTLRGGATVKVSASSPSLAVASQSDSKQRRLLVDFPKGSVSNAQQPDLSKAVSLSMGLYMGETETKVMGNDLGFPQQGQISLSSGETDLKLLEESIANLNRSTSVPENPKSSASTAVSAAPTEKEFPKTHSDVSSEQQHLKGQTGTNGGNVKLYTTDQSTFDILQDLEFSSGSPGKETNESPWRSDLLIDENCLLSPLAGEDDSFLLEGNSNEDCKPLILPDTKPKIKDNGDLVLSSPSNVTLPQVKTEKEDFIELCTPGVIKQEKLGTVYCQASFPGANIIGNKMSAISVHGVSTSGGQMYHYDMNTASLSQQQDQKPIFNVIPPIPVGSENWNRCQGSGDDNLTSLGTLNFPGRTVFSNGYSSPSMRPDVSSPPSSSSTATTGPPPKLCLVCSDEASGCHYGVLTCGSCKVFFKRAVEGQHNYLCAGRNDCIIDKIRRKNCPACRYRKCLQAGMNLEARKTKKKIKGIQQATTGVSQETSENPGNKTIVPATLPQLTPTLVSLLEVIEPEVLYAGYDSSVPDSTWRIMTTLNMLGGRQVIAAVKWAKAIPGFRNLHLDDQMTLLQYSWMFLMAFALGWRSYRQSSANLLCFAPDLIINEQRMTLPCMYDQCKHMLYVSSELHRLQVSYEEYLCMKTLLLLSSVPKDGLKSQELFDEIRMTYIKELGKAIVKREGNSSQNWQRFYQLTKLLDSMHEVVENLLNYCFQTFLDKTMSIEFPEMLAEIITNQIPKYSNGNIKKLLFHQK
# Method: Assay of Binding to Human Glucocorticoid Receptor The gene for the alpha isoform of human glucocorticoid receptor was cloned by reverse polymerase chain reaction. The total RN A was isolated from human peripheral blood lymphocytes according to the instructions of the manufacturer (Qiagen), transcripted into cDNA with AMV reverse transcriptase (Roche) and the gene was multiplied by specific primers 1) [NT] ID NO:1] and 2) [NT] NO:1]. […] The medium was removed and 1 μg of DNA, 7 μl of PLUS reagent and 2 μl of Lipofectamin (Life Technologies) in 500 μl of DMEM were added per well. The cells were incubated at 37° C. in an atmosphere with 5% CO2 and after 5 hours the same volume of 20% FBS/DMEM was added. After 24 hours, the medium was completely changed. 48 hours after transfection, the test compounds in different concentrations and 24 nM [^3H]dexamethazone (Pharmacia) in DMEM medium were added. The cells were incubated for 90 minutes at 37° C. in an atmosphere with 5% CO2, washed three times with PBS buffer (Sigma) cooled to 4° C. (pH=7.4), and then lysed in Tris buffer (pH=8.0) (Sigma) with 0.2% of SDS (Sigma). After the addition of UltimaGold XR (Packard) scintillation liquid, the residual radioactivity was read in a Tricarb (Packard) β-scintillation counter.
# Male Balb/C mice = assay: Model of lung eosinophilia in mice; format: in vivo; conditions: OVA-sensitised and challenged mice, daily i.n. or i.p.; t-test, p<0.05
# Method: Model of Lung Eosinophilia in Mice Male Balb/C mice with a body weight of 20-25 g were randomly divided into groups, and sensitised by an i.p. injection of ovalbumin (OVA, Sigma) on day zero and day fourteen. On the twentieth day, the mice were subjected to a challenge test by i.n. (intranasal) application of OVA (positive control or test groups) or PBS (negative control). 48 hours after i.n. application of OVA, the animals were anaesthetized and the lungs were rinsed with 1 mL of PBS. The cells were separated on Cytospin 3 cytocentrifuge (Shandon). The cells were stained in Diff-Quick (Dade) and the percentage of eosinophils was determined by differential counting of at least 100 cells. Fluticasone (GlaxoWellcome) and beclomethasone ([…].) were used as standard substances, with positive and negative control. The compounds were administered daily i.n. or i.p. in different doses 2 days before the challenge test and up to the completion of the test.
# Male Wistar rats = assay: Cold stress model; format: in vivo; conditions: standard 1 mg/kg once daily over three days, cold stress at 4° C. for 1 hour; P<0.05, T-test
# Method: Male Wistar rats with a body weight of 200-250 g (our own breeding) were randomly divided into groups. The carrier (lactose) in the volume of 0.5 mL/100 g s.c. was applied to the negative and positive control group. Test substances and the standard were applied once daily over three days in the dose of 2 mg/kg in the volume of 0.5 mL/100 g of body weight. The standard was applied in the dose of 1 mg/kg, in the volume of 0.5 mL/100 g of body weight.
# On day three, 2 hours after the last treatment, all animals, except for the negative control group, were subjected to cold stress at 4° C. for 1 hour. After the stress, the animals were anaesthetized with thiopental (Pliva d.d.) and blood from all animals was drawn on K2 EDTA into test tubes. Plasma samples were frozen at −70° C. Corticosterone levels were determined by fluorimetric method according to Silber. Thymuses were removed from animals and weighed, and their weights were compared with the negative and positive control.
Compound,affinity for glucocorticoid receptor (displacement of radioactive dexamethasone) [1],number of eosinophils in the lung rinse with respect to positive control (Male Balb/C mice),corticosterone plasma levels (Male Wistar rats),weight of the thymus (Male Wistar rats)
CC[C@H]1OC(=O)[C@H](C)[C@@H](O)[C@H](C)[C@@H](O)[C@](C)(O)C[C@@H](C)CN(CCCNC(=O)[C@H]2[C@H](C)CC3C4CCC5=CC(=O)C=C[C@]5(C)[C@@]4(F)[C@@H](O)C[C@@]32C)[C@H](C)[C@@H](O)[C@]1(C)O (stereo partly drawn) [Compound 2],have the affinity for glucocorticoid receptor,statistically significantly reduced,,
C[C@@H]1C[C@H]2[C@@H]3C[C@H](F)C4=CC(=O)C=C[C@]4(C)[C@@]3(F)[C@@H](O)C[C@]2(C)[C@@]1(O)C(=O)SCF [fluticasone],,,statistically significantly reduced,reduced the weight of the thymus
CCCC1O[C@@H]2C[C@H]3[C@@H]4CCC5=CC(=O)C=C[C@]5(C)[C@H]4[C@@H](O)C[C@]3(C)[C@]2(C(=O)CO)O1 (stereo partly drawn) [budesonide],,,statistically significantly reduced,reduced the weight of the thymus
